Where two headings read alike, the source gives them in different places.
Legend:
RPMI8226.BR cells = test: Cell viability of bortezomib-resistant myeloma cells; assay type: cell-based
MM.1S.BR cells = test: as above; assay type: cell-based
[1] = test system: 26S proteasome in MDA-MB-231 cells; test: Proteasome activity in total cell lysates, Suc-LLVY-AMC; assay type: cell-based; conditions: 1 h
DYRK2 [2] = biological target: T1, DYRK2 (Homo sapiens, UniProt Q92630); test: DYRK2 kinase assay, IC50 determination; assay type: biochemical; conditions: 0.025 mM, 0.1 mM or 2 mM ATP
T1 sequence (Q92630 1-601): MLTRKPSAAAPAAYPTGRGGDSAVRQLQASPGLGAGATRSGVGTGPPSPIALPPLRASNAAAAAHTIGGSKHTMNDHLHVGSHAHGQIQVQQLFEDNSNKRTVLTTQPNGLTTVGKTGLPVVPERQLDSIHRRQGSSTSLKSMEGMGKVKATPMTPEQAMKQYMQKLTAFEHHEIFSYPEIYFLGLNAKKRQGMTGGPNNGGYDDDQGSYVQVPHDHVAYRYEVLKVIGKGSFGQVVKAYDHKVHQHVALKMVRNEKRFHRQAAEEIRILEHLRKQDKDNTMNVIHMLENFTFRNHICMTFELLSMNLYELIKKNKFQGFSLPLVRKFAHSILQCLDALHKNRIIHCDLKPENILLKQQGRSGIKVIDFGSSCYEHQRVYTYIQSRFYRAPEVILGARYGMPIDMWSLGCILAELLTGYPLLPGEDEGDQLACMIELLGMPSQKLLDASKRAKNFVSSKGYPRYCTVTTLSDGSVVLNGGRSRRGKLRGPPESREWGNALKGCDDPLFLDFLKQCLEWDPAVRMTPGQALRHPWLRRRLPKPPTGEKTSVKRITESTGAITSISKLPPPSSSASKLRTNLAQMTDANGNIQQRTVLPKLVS

GSK3β [3] = biological target: T2, GSK3β (Homo sapiens, UniProt P49841); test: GSK3β kinase assay, IC50 determination; assay type: biochemical
T2 sequence (P49841 whole entry): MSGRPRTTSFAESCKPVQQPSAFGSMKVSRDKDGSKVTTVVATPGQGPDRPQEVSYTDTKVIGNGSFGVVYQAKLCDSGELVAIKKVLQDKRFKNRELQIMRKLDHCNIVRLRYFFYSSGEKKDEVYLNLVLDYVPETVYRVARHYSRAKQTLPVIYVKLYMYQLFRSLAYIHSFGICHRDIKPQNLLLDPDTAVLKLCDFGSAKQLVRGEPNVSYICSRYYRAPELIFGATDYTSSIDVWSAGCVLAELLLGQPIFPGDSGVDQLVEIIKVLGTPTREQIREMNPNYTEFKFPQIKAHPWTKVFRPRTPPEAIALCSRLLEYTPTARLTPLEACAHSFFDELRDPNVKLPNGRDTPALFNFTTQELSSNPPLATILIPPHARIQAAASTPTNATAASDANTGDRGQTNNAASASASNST

DYRK2 [4] = biological target: T1, DYRK2; test: pT25 RPT3 phosphorylation in HEK293T cells stably expressing FLAG-DYRK2; assay type: cell-based
[5] = test system: multiple myeloma cell lines; test: Caspase 3/7 activity; assay type: cell-based; conditions: multiple myeloma cell lysates, 16 h
[6] = test system: MDA-MB-231 xenograft tumors; test: MDA-MB-231 tumor xenograft in NSG mice; assay type: in vivo
[7] = test system: 26S proteasome in HaCaT cells; test: Proteasome activity in total cell lysates, Suc-LLVY-AMC; assay type: cell-based; conditions: 10 μM, 1 h
[8] = test system: UBL-YFP-PEST in HEK293T cells; test: UBL-YFP-PEST reporter degradation; assay type: cell-based; conditions: 10 μM, 1 h pretreatment, CHX 2 h
GSK3β [9] = biological target: T2, GSK3β; conditions: read-out: IC50 GSK3β; cited from earlier work
26S proteasome = test: Affinity-purified 26S proteasome, bodipy-casein degradation in vitro; assay type: biochemical, human; conditions: 10 μM
Hs578T cells = test: Matrigel transwell invasion assay; assay type: cell-based; conditions: 5 μM, 24 h
DYRK3 = biological target: T3, DYRK3 (Homo sapiens, UniProt O43781); test: DYRK3 kinase assay, IC50 determination
T3 sequence (O43781 1-588): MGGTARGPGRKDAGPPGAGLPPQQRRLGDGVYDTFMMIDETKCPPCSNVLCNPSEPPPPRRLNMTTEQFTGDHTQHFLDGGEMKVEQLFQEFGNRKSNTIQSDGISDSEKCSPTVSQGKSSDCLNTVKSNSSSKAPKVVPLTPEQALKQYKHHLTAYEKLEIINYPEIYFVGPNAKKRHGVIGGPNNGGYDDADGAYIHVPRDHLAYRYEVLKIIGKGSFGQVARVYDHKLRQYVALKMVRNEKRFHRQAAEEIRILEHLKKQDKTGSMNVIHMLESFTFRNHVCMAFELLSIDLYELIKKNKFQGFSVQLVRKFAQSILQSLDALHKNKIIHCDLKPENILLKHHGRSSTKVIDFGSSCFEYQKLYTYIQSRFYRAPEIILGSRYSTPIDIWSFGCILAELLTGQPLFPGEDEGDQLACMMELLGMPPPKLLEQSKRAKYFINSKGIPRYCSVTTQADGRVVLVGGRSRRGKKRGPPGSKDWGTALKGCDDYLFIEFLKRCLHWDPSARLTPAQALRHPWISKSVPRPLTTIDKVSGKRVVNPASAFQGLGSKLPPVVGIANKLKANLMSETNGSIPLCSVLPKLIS

5TGM1-GFP cells = test: Cell proliferation by cell counting; assay type: cell-based; conditions: 1 µM, 5 days
MDA-MB-231 cells [10] = test: Cell proliferation by cell counting; assay type: cell-based; conditions: 3 µM
MDA-MB-231 cells [11] = test: Matrigel transwell invasion assay; assay type: cell-based; conditions: MDA-MB-231, 5 μM, 24 h

Compound: CC(C)C[C@H](NC(=O)[C@H](Cc1ccccc1)NC(=O)c1cnccn1)B(O)O [bortezomib]
- resistance to bortezomib relative to bortezomib-sensitive cells (RPMI8226.BR cells; RPMI8226.BR vs RPMI8226): 20- to 100 fold
- resistance to bortezomib relative to bortezomib-sensitive cells (MM.1S.BR cells; MM.1S.BR vs MM.1S): 20- to 100 fold

Compound: COc1cc(/C=C/C(=O)CC(=O)/C=C/c2ccc(O)c(OC)c2)ccc1O [curcumin]
- proteasome activity with curcumin treatment in DYRK2-null cells ([1]; DYRK2-null MDA-MB-231, 10 μM): no further decrease of proteasome activity
- decrease of proteasome activity toward Suc-LLVY-AMC ([1]; MDA-MB-231 parental, 10 μM): 25–40%
- effect of higher concentrations of ATP on the IC50 for DYRK2 (DYRK2 [2]): modest effect
- IC50 (GSK3β [3]): > 3000 nM
- concentration at which curcumin inhibits DYRK2 in cells (DYRK2 [4]): 1 to 10 µM
- inhibitor concentration of maximal suppression of pT25 RPT3 phosphorylation (DYRK2 [4]; 0.5 h): 3–10 μM
- caspase3/7 activity [5]: significant increase
- Ki-67 staining in xenograft tumors ([6]; 300 mg/kg i.p.): greatly attenuated
- tumor burden ([6]; 300 mg/kg i.p. every alternate day, after 2 wk of treatment, NSG mice): significantly reduced tumor burden
- reduction of proteasome activity in curcumin-treated mouse tumors ([6]; 300 mg/kg i.p., whole-tumor lysates, Suc-LLVY-AMC): 30%
- cytotoxicity versus bortezomib-sensitive WT counterpart (RPMI8226.BR cells; RPMI8226.BR, 10 μM, 24 h): comparable cytotoxicity
- proteasome activity with curcumin treatment in DYRK2-null cells ([7]; DYRK2-null HaCaT): no further decrease of proteasome activity
- decrease of proteasome activity toward Suc-LLVY-AMC ([7]; HaCaT parental): 25–40%
- UBL-YFP-PEST reporter protein degradation [8]: stabilized
- IC50 (GSK3β [9]): 66 nM
- effect on activity of affinity-purified proteasome to degrade BODIPY-casein (26S proteasome): no significant effect
- cell invasion, 3D matrigel invasion assay (Hs578T cells): largely blocked
- IC50 (DYRK3): 20 nM
- rate of cell proliferation compared with DMSO-treated controls (5TGM1-GFP cells): markedly slower rate of cell proliferation
- cell proliferation in DYRK2 KO cells (MDA-MB-231 cells [10]; MDA-MB-231 DYRK2 KO): did not exhibit a further decrease in cell proliferation
- rate of cell proliferation compared with DMSO-treated controls (MDA-MB-231 cells [10]; MDA-MB-231 WT, 5 days): markedly slower rate of cell proliferation
- cell invasion, 3D matrigel invasion assay (MDA-MB-231 cells [11]): largely blocked
- cytotoxicity versus bortezomib-sensitive WT counterpart (MM.1S.BR cells; MM.1S.BR, 10 μM, 24 h): comparable cytotoxicity

From paper PMC6094102 (Proceedings of the National Academy of Sciences of the …, 2018)
